The text below walks through data of PubChem BioAssay (NCI).

Holding throughout (assay): NCI anticancer screen, dose series, 48 h
Assay [1] deals with SNB-19 CNS.
The test system of assay [2] is UO-31 renal.
Assay [3] concerns LOX IMVI melanoma.
Assay [4] relates to M14 melanoma.
The test system of assay [5] is 786-0 renal.
The test system of assay [6] is HCT-116 colon.
The test system of assay [7] is SF-268 CNS.
Assay [8] concerns NCI-H23 lung.
Assay [9] deals with IGROV1 ovarian.
In assay [10] the test system is OVCAR-8 ovarian.
For assay [11], the system named is SF-539 CNS.
Assay [12] relates to SW-620 colon.
Assay [13] deals with COLO 205 colon.
Assay [14] deals with SK-MEL-5 melanoma.
The subject of assay [15] is HOP-62 NSCLC.
Assay [16] has as its system KM12 colon.
In assay [17] the test system is HL-60(TB) leukemia.
The subject of assay [18] is HCC-2998 colon.
For assay [19], the system named is MDA-N.

Each structure is given as a SMILES string.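 Assay format: 96-well plates, 48-hour exposure. TGI is the concentration that stops growth completely.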 Where only a bound is given, the exact number is not on record here.

Regarding `O=C(NN1C(=O)C(Cl)C1c1ccc(Cl)cc1)c1c(Cl)c(Cl)c(Cl)c(Cl)c1-c1nc2ccccc2[nH]1` (stereo unspecified), the TGI in [1] is more than 100 µM; in [2], more than 100 µM; in [3] it was 32.5 µM; in assay [4], 74.9 µM; in [5], 47.4 µM; in [6], 44 µM. In addition, the TGI in [7] was more than 100 µM; in assay [8], 69 µM; in assay [9] it was 45.8 µM; in [10], 43.7 µM; in [11] it was more than 100 µM; in assay [12], more than 100 µM. The TGI is 36.2 µM in assay [13]; more than 100 µM in assay [14]; more than 100 µM in [15]; more than 100 µM in assay [16]; 59.6 µM in [17]; 30.9 µM in assay [18].
With `CCOC1C(Br)Cn2c(=O)c3cc4ccccc4cc3c(=O)n2C1C` (stereo unspecified), the TGI in assay [1], in [2], in assay [3], in [4], in assay [5] and in assay [6] was more than 100 µM throughout. Moreover, the TGI in assay [7], in assay [8], in [9], in [10], in assay [11] and in assay [12] was more than 100 µM each time. Further, the TGI in [13], in assay [14], in assay [15], in assay [16], in assay [17] and in assay [18] was more than 100 µM in each case.
As to `O=C(CSc1nnc(-c2ccccn2)s1)N/N=C/c1ccccc1`, the TGI in assay [1], in [2], in [3], in assay [4], in assay [5] and in [19] was more than 100 µM throughout. Further, the TGI in assay [6], in assay [7], in [8], in [9], in [10] and in [11] was more than 100 µM each time. In addition, the TGI in [12], in assay [13], in assay [14], in assay [15] and in [16] was more than 100 µM throughout.
Take `CC1(C)OCN(c2ccc(N3CCOCC3)cc2)Cn2c1nc1ccccc12`: the TGI in assay [1], in assay [2], in assay [3], in assay [4], in assay [5] and in assay [6] was more than 100 µM each time. The TGI in [7], in assay [8], in assay [9], in assay [10], in [11] and in [12] was more than 100 µM each time. For the same molecule, the TGI is more than 100 µM in assay [13]; more than 100 µM in assay [15]; more than 100 µM in assay [16]; 72.9 µM in [17]; more than 100 µM in assay [18].
With `O=C1COc2cc(NC(=S)Nc3ccccc3)ccc2N1`, the TGI in [1], in assay [2], in assay [3], in assay [4], in assay [5] and in assay [6] was more than 100 µM throughout. For the same molecule, the TGI in assay [7], in assay [8], in assay [9], in assay [10], in assay [11] and in assay [12] was more than 100 µM each time. For the same molecule, the TGI in [13], in [14], in [15], in assay [16], in [17] and in assay [18] was more than 100 µM in each case.
Take `CC1(c2cccc(C3CC4(CCC3=O)OCCCCO4)c2)OCCO1` (stereo unspecified): the TGI in [1], in assay [2], in assay [3], in assay [4], in [5] and in assay [6] was more than 100 µM throughout. Also, the TGI in assay [7], in assay [8], in assay [9], in assay [10], in assay [11] and in [12] was more than 100 µM throughout. The TGI in assay [13], in assay [14], in assay [15], in assay [16], in [17] and in assay [18] was more than 100 µM throughout.
As for `CCC(CC)NC1=C(NC(C)=O)C(=O)c2ccccc2C1=O`, the TGI in assay [1], in [2], in assay [3], in assay [4], in [5] and in assay [6] was more than 50 µM throughout. Moreover, the TGI in assay [7], in assay [8], in assay [9], in assay [10], in [11] and in assay [12] was more than 50 µM throughout. The TGI in assay [13], in assay [14], in assay [15], in assay [16], in assay [17] and in [18] was more than 50 µM throughout.
As to `COc1ccc2nc3cc(Cl)ccc3c(Sc3ccc([N+](=O)[O-])cc3C)c2c1`, the TGI in assay [1], in assay [2], in assay [3], in [4], in assay [5] and in assay [6] was more than 100 µM in each case. Moreover, the TGI in assay [7], in [8], in assay [9], in assay [10], in assay [11] and in assay [12] was more than 100 µM throughout. Also, the TGI in [13] was 46.1 µM; in assay [14] it was more than 100 µM; in [15] it was more than 100 µM; in assay [16], more than 100 µM; in assay [18], more than 100 µM.
